Consider 11 compounds from PubChem BioAssay (NCI).

Some test systems named below: A549 NSCLC; HCC-2998 colon; HT29 colon; OVCAR-3 ovarian; OVCAR-5 ovarian; SNB-75 CNS; TK-10 renal; K-562 leukemia; M14 melanoma; NCI-H226 lung.
Experiment in all cases: growth of human tumour cells (NCI), 48 h

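Tested at 5 concentrations; 48 h exposure; 96-well plates; endpoints linearly interpolated, else capped at highest concentration. At the GI50, growth is halved. Definition used: TGI = concentration required for complete inhibition of growth.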 Where only a bound is given, the exact number is not on record here.

In the case of `CCOC(=O)C(=[N+]=[N-])[Si](C)(C)C`, the TGI with A549 NSCLC, in the assay on HCC-2998 colon, in the assay on HT29 colon, in the assay on OVCAR-3 ovarian, in the assay with OVCAR-5 ovarian and in the assay with SNB-75 CNS was greater than 100 µM each time. The TGI in the assay on TK-10 renal is greater than 100 µM.
`C1=CC(N(c2ccccc2)C2C=CCCC2)CCC1` (centres undefined): the TGI with A549 NSCLC, with HT29 colon, in the assay with K-562 leukemia, in the assay with M14 melanoma and with TK-10 renal was greater than 100 µM in each case.
As to `COc1cc2c(cc1OCCCNC(=O)c1cccc3c(=O)c4ccccc4[nH]c13)N=C[C@@H]1CCCN1C2=O`, the GI50 is 0.0202 µM with A549 NSCLC; less than 0.0103 µM with HCC-2998 colon; less than 0.01 µM with M14 melanoma; less than 0.01 µM in the assay with NCI-H226 lung; less than 0.01 µM in the assay with OVCAR-5 ovarian; less than 0.0434 µM in the assay with TK-10 renal. In addition, the TGI in the assay with A549 NSCLC was greater than 100 µM; in the assay on HCC-2998 colon it was 0.0321 µM; with HT29 colon, greater than 56.3 µM; in the assay with K-562 leukemia, greater than 100 µM; with M14 melanoma, less than 0.01 µM; in the assay with NCI-H226 lung, less than 0.01 µM. Besides, the results for the TGI in the assay with OVCAR-3 ovarian, in the assay with OVCAR-5 ovarian and in the assay with TK-10 renal were 6.64 µM, 30.6 µM and 2.66 µM, respectively.
As for `C#C[C@]1(O)CCC2C3CCc4cc(O)ccc4C3CC[C@@]21C` (some centres undefined), the GI50 with A549 NSCLC was 5.81 µM; in the assay with HCC-2998 colon, 9.88 µM; with HT29 colon, 3.65 µM; in the assay on M14 melanoma it was 3.87 µM; in the assay on NCI-H226 lung, 10.3 µM; with OVCAR-3 ovarian it was 3.14 µM. Besides, the GI50 was 17.3 µM with OVCAR-5 ovarian, 1.93 µM in the assay on SNB-75 CNS and 10.3 µM in the assay with TK-10 renal. For the same compound, the TGI is greater than 100 µM in the assay on A549 NSCLC; 63.5 µM with HCC-2998 colon; 18.6 µM in the assay with HT29 colon; 13.5 µM in the assay on M14 melanoma; 30.8 µM in the assay with NCI-H226 lung; 8.43 µM in the assay on OVCAR-3 ovarian. Moreover, the TGI is greater than 100 µM in the assay with OVCAR-5 ovarian, 6.76 µM in the assay on SNB-75 CNS and greater than 100 µM with TK-10 renal.
Consider `[N-]=[N+]=N[C@H]1C[C@@H](CO)O[C@H]1n1cnc2c(N)ncnc21`, for which the TGI in the assay with A549 NSCLC, in the assay with HCC-2998 colon, in the assay on HT29 colon, with M14 melanoma, with NCI-H226 lung and in the assay with OVCAR-3 ovarian was greater than 100 µM each time. Further, the TGI in the assay on OVCAR-5 ovarian, in the assay with SNB-75 CNS and in the assay on TK-10 renal was greater than 100 µM throughout.
For the compound `COc1ccc2c(c1)C(=O)c1c-2c(N2CCN(C(=O)CNCCNCCO)CC2)nc2ccccc12`, the GI50 in the assay on A549 NSCLC was 7.1 µM; with HCC-2998 colon, 2.58 µM; in the assay on HT29 colon, 1.61 µM; in the assay with K-562 leukemia it was 2.85 µM; in the assay with M14 melanoma it was 1.82 µM; in the assay with NCI-H226 lung it was 10.9 µM. The GI50 is 11.7 µM in the assay with OVCAR-3 ovarian, 15.4 µM in the assay on OVCAR-5 ovarian and 13.7 µM with TK-10 renal. The TGI in the assay on A549 NSCLC came out at 24.3 µM; in the assay with HCC-2998 colon it was 7.58 µM; in the assay on HT29 colon, 3.05 µM; in the assay with K-562 leukemia it was 11.9 µM; with M14 melanoma, 3.33 µM; with NCI-H226 lung, 29.5 µM. In addition, the TGI in the assay on OVCAR-3 ovarian was determined as 31.2 µM; in the assay with OVCAR-5 ovarian, 31 µM; in the assay on TK-10 renal, 32.9 µM.
As to `OCC1OC(c2nc(C3=NCCCN3)cs2)C(O)C1O` (centres undefined), the TGI in the assay on A549 NSCLC, in the assay on HCC-2998 colon, with HT29 colon, in the assay with K-562 leukemia, in the assay on M14 melanoma and with NCI-H226 lung was greater than 100 µM throughout. Besides, the TGI in the assay with OVCAR-3 ovarian was greater than 10 µM; in the assay on OVCAR-5 ovarian it was greater than 100 µM; with TK-10 renal it was greater than 100 µM.
As to `COC(=O)C(Cc1nc2ccc(Cl)cc2[nH]c1=O)/C(=N\N)C(=O)Nc1cc(C)c(Cl)cc1S(=O)(=O)O` (centres undefined), the TGI in the assay with A549 NSCLC, in the assay with HCC-2998 colon, in the assay with HT29 colon, in the assay with K-562 leukemia, in the assay with M14 melanoma and in the assay with NCI-H226 lung was greater than 100 µM throughout. For the same compound, the TGI in the assay with OVCAR-3 ovarian and with OVCAR-5 ovarian was greater than 100 µM each time.
Turning to `O=C(CC1(O)C(=O)N(Cc2ccccc2)c2ccc(F)cc21)c1ccc(C(=O)NCC2CCC3(CC2)OOC2(CCCCC2)OO3)cc1` (centres undefined), the GI50 is 0.207 µM in the assay with A549 NSCLC; 1.84 µM with HCC-2998 colon; 0.362 µM with HT29 colon; 2.02 µM with M14 melanoma; 1.1 µM in the assay on NCI-H226 lung; 0.254 µM in the assay with OVCAR-3 ovarian. Besides, the GI50 with OVCAR-5 ovarian was 1.17 µM; in the assay on SNB-75 CNS, 1.48 µM; in the assay on TK-10 renal, 0.191 µM. Besides, the TGI in the assay with A549 NSCLC was 0.441 µM; in the assay with HCC-2998 colon, 3.92 µM; in the assay on HT29 colon it was 1.28 µM; in the assay with M14 melanoma, 6.63 µM; in the assay with NCI-H226 lung it was 4.19 µM; in the assay with OVCAR-3 ovarian it was 0.634 µM. Also, the TGI in the assay on OVCAR-5 ovarian worked out at 4.89 µM; in the assay with SNB-75 CNS, 3.19 µM; with TK-10 renal, 0.413 µM.
On to `Nc1c(C(=O)Nc2ccncc2)sc2nc3c(cc12)CCCCCCCC3`, for which the GI50 in the assay on A549 NSCLC is 1.01 µM; in the assay with HCC-2998 colon it was 0.9 µM; with HT29 colon, 0.969 µM; with M14 melanoma, 0.93 µM; in the assay with NCI-H226 lung, 0.919 µM; with OVCAR-3 ovarian, 0.946 µM. The GI50 was 0.897 µM in the assay on OVCAR-5 ovarian, 0.819 µM in the assay on SNB-75 CNS and 1.17 µM in the assay with TK-10 renal. The TGI with A549 NSCLC turned out to be 2 µM; in the assay with HCC-2998 colon it was 1.63 µM; with HT29 colon, 1.79 µM; in the assay on M14 melanoma it was 1.75 µM; in the assay with NCI-H226 lung it was 2.03 µM; in the assay on OVCAR-3 ovarian, 1.68 µM. Also, the values for the TGI in the assay on OVCAR-5 ovarian, in the assay with SNB-75 CNS and in the assay with TK-10 renal were 1.64 µM, 1.53 µM and 1.98 µM, respectively.
Consider `COc1ccc(NC(=O)/C(Cc2cc(=O)oc3cc(O)ccc23)=N\NC(C)(C)C)c(OC)c1`, for which the TGI with A549 NSCLC, with HCC-2998 colon, with HT29 colon, in the assay with K-562 leukemia, in the assay on M14 melanoma and in the assay on NCI-H226 lung was greater than 100 µM throughout. The TGI with OVCAR-3 ovarian, in the assay on OVCAR-5 ovarian and in the assay on TK-10 renal was greater than 100 µM in each case.
